ChEMBL document CHEMBL3885881, “DrugMatrix”

Species: Rattus norvegicus
Experiment: DrugMatrix - Regimen: Daily Repeat
Type: toxicity, organism-based, Sprague-Dawley
Set-up: regimen Daily Repeat, gender Male, age 6-8 weeks
Details: in vivo, po, route oral GAVAGE, […]; for ABSOLUTE BASOPHIL / ABSOLUTE EOSINOPHIL / ABSOLUTE LYMPHOCYTE / ABSOLUTE MONOCYTE / ABSOLUTE SEGMENTED NEUTROPHIL / BASOPHIL / EOSINOPHIL / ERYTHROCYTE COUNT / HEMATOCRIT / HEMOGLOBIN / LEUKOCYTE COUNT / LYMPHOCYTE / MEAN CORPUSCULAR HEMOGLOBIN / MEAN CORPUSCULAR HEMOGLOBIN CONCENTRATION / MEAN CORPUSCULAR VOLUME / MONOCYTE / NEUTROPHIL / NUCLEATED RED BLOOD CELLS / PLATELET COUNT: tissue Blood; for ALANINE AMINOTRANSFERASE / ALBUMIN / ALKALINE PHOSPHATASE / ASPARTATE AMINOTRANSFERASE / BLOOD UREA NITROGEN / CARBON DIOXIDE / CHLORIDE / CHOLESTEROL / CREATINE PHOSPHOKINASE / CREATININE / GLUCOSE / LACTATE DEHYDROGENASE / LIPASE / PHOSPHORUS / POTASSIUM / SODIUM / TOTAL BILIRUBIN / TOTAL PROTEIN / URIC ACID: tissue Plasma
[1] = 0 mg/kg, 72 h, dose level Control, time 3 day
[2] = 0 mg/kg, 120 h, dose level Control, time 5 day
[3] = 10 mg/kg, 72 h, dose level Low, time 3 day

c1ccc2[nH]c(-c3cscn3)nc2c1 [THIABENDAZOLE]
ABSOLUTE BASOPHIL [1]: 0 CELLS/uL
ABSOLUTE EOSINOPHIL [1]: 13.67 CELLS/uL
ABSOLUTE LYMPHOCYTE [1]: 10069.5 CELLS/uL
ABSOLUTE MONOCYTE [1]: 50 CELLS/uL
ABSOLUTE SEGMENTED NEUTROPHIL [1]: 516.83 CELLS/uL
BASOPHIL [1]: 0%
EOSINOPHIL [1]: 0.17%
ERYTHROCYTE COUNT [1]: 5.44 x10E6/uL
HEMATOCRIT [1]: 33.88%
HEMOGLOBIN [1]: 13.23 G/DL
LEUKOCYTE COUNT [1]: 10.65 x10E3/uL
LYMPHOCYTE [1]: 94.67%
MEAN CORPUSCULAR HEMOGLOBIN [1]: 24.37 pg
MEAN CORPUSCULAR HEMOGLOBIN CONCENTRATION [1]: 39.05 G/DL
MEAN CORPUSCULAR VOLUME [1]: 62.38 fL
MONOCYTE [1]: 0.67%
NEUTROPHIL [1]: 4.5%
NUCLEATED RED BLOOD CELLS [1]: 0.33 /100WBC
PLATELET COUNT [1]: 414.5 x10E3/uL
ALANINE AMINOTRANSFERASE [1]: 72 u/L
ALBUMIN [1]: 3.75 G/DL
ALKALINE PHOSPHATASE [1]: 375 u/L
ASPARTATE AMINOTRANSFERASE [1]: 87.5 u/L
BLOOD UREA NITROGEN [1]: 14 mg/dL
CARBON DIOXIDE [1]: 27.5 mmol/L
CHLORIDE [1]: 95.83 MEQ/L
CHOLESTEROL [1]: 68.5 mg/dL
CREATINE PHOSPHOKINASE [1]: 284.33 u/L
CREATININE [1]: 0.16 mg/dL
GLUCOSE [1]: 156.67 mg/dL
LACTATE DEHYDROGENASE [1]: 101.83 u/L
LIPASE [1]: 9.67 u/L
PHOSPHORUS [1]: 10.33 mg/dL
POTASSIUM [1]: 5.22 MEQ/L
SODIUM [1]: 137.67 MEQ/L
TOTAL BILIRUBIN [1]: 0.13 mg/dL
TOTAL PROTEIN [1]: 5.43 G/DL
URIC ACID [1]: 0.8 mg/dL
ABSOLUTE BASOPHIL [2]: 0 CELLS/uL
ABSOLUTE EOSINOPHIL [2]: 20.67 CELLS/uL
ABSOLUTE LYMPHOCYTE [2]: 11518.33 CELLS/uL
ABSOLUTE MONOCYTE [2]: 47 CELLS/uL
ABSOLUTE SEGMENTED NEUTROPHIL [2]: 614 CELLS/uL
BASOPHIL [2]: 0%
EOSINOPHIL [2]: 0.17%
ERYTHROCYTE COUNT [2]: 5.61 x10E6/uL
HEMATOCRIT [2]: 34.25%
HEMOGLOBIN [2]: 13.38 G/DL
LEUKOCYTE COUNT [2]: 12.2 x10E3/uL
LYMPHOCYTE [2]: 94.33%
MEAN CORPUSCULAR HEMOGLOBIN [2]: 23.83 pg
MEAN CORPUSCULAR HEMOGLOBIN CONCENTRATION [2]: 39.08 G/DL
MEAN CORPUSCULAR VOLUME [2]: 61.03 fL
MONOCYTE [2]: 0.33%
NEUTROPHIL [2]: 5.17%
NUCLEATED RED BLOOD CELLS [2]: 0 /100WBC
PLATELET COUNT [2]: 941.83 x10E3/uL
ALANINE AMINOTRANSFERASE [2]: 68.83 u/L
ALBUMIN [2]: 4.12 G/DL
ALKALINE PHOSPHATASE [2]: 492.67 u/L
ASPARTATE AMINOTRANSFERASE [2]: 83.33 u/L
BLOOD UREA NITROGEN [2]: 14 mg/dL
CARBON DIOXIDE [2]: 37 mmol/L
CHLORIDE [2]: 98.67 MEQ/L
CHOLESTEROL [2]: 56.5 mg/dL
CREATINE PHOSPHOKINASE [2]: 167.33 u/L
CREATININE [2]: 0.17 mg/dL
GLUCOSE [2]: 157.5 mg/dL
LACTATE DEHYDROGENASE [2]: 104.83 u/L
LIPASE [2]: 10 u/L
PHOSPHORUS [2]: 10.43 mg/dL
POTASSIUM [2]: 5.46 MEQ/L
SODIUM [2]: 143.87 MEQ/L
TOTAL BILIRUBIN [2]: 0.17 mg/dL
TOTAL PROTEIN [2]: 5.72 G/DL
URIC ACID [2]: 0.85 mg/dL
ABSOLUTE BASOPHIL [3]: 0 CELLS/uL
ABSOLUTE EOSINOPHIL [3]: 0 CELLS/uL
ABSOLUTE LYMPHOCYTE [3]: 5878.33 CELLS/uL
ABSOLUTE MONOCYTE [3]: 47.67 CELLS/uL
ABSOLUTE SEGMENTED NEUTROPHIL [3]: 707.33 CELLS/uL
BASOPHIL [3]: 0%
EOSINOPHIL [3]: 0%
ERYTHROCYTE COUNT [3]: 5.01 x10E6/uL
HEMATOCRIT [3]: 31.07%
HEMOGLOBIN [3]: 12.3 G/DL
LEUKOCYTE COUNT [3]: 6.63 x10E3/uL
LYMPHOCYTE [3]: 88.67%
MEAN CORPUSCULAR HEMOGLOBIN [3]: 24.73 pg
MEAN CORPUSCULAR HEMOGLOBIN CONCENTRATION [3]: 39.77 G/DL
MEAN CORPUSCULAR VOLUME [3]: 62.1 fL
MONOCYTE [3]: 0.67%
NEUTROPHIL [3]: 10.67%
NUCLEATED RED BLOOD CELLS [3]: 0 /100WBC
PLATELET COUNT [3]: 848.67 x10E3/uL
ALANINE AMINOTRANSFERASE [3]: 79.33 u/L
ALBUMIN [3]: 3.7 G/DL
ALKALINE PHOSPHATASE [3]: 386.33 u/L
ASPARTATE AMINOTRANSFERASE [3]: 90.33 u/L
BLOOD UREA NITROGEN [3]: 13.33 mg/dL
CARBON DIOXIDE [3]: 25 mmol/L
CHLORIDE [3]: 96 MEQ/L
CHOLESTEROL [3]: 74 mg/dL
CREATINE PHOSPHOKINASE [3]: 147.33 u/L
CREATININE [3]: 0.21 mg/dL
GLUCOSE [3]: 143.33 mg/dL
LACTATE DEHYDROGENASE [3]: 107.33 u/L
LIPASE [3]: 12.67 u/L
PHOSPHORUS [3]: 10.57 mg/dL
POTASSIUM [3]: 5.5 MEQ/L
SODIUM [3]: 138.4 MEQ/L
TOTAL BILIRUBIN [3]: 0.13 mg/dL
TOTAL PROTEIN [3]: 5.33 G/DL
URIC ACID [3]: 0.87 mg/dL
